One may read the IC50 as the point on the concentration scale where inhibition reaches its midpoint.

Results on 1 substance are retold here after BindingDB's records for doi:10.1016/j.bmcl.2018.02.046 (AstraZeneca, 2018).

The target in this assay is Proprotein convertase subtilisin/kexin type 9 (Homo sapiens, UniProt Q8NBP7). Kind of assay: Inhibition of PCSK9 binding to LDLR in human HuH7 cells after 5 hrs by On-cell Western assay.
Sequence of Proprotein convertase subtilisin/kexin type 9 (Q8NBP7 31-152 limits assumed): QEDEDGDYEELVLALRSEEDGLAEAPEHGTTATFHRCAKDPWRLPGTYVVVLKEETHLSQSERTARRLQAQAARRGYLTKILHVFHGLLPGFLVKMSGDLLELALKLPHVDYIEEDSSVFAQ
Sequence of Proprotein convertase subtilisin/kexin type 9 (Q8NBP7 153-692 limits assumed): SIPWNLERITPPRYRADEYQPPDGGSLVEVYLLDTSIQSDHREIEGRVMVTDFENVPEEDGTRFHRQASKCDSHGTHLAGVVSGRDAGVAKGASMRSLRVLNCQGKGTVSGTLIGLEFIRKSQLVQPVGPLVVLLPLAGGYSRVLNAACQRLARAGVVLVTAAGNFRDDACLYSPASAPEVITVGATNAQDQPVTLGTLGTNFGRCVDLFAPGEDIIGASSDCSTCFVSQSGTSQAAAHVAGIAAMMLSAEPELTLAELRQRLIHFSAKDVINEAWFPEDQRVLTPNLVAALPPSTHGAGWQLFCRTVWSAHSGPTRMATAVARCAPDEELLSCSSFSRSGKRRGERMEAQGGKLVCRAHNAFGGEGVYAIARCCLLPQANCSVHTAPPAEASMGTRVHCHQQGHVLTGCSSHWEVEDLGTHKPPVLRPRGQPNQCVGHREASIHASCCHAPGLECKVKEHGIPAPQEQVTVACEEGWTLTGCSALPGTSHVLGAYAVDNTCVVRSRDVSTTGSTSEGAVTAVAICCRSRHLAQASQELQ

Substance H-LILPKHSDAD-OH had an IC50 of 1600 nM.
